Data reported in patent publication US12186293B2, “Therapeutic methods using decanoic acid and amino acids” (Wintermute Biomedical, Inc., priority 2018, dated 2025).

System: methicillin-resistant Staphylococcus aureus (MRSA)
Test: In vitro bactericidal test on MRSA isolates (viable CFU/mL after 24 hours of treatment)
Details: average across three MRSA isolates
Method: Note that efficacy is reported in terms of the viable bacterial concentration (in CFU/mL) remaining after 24 hours of treatment with the drug product (in compliance with CLSI guidelines).
In this example, bacteria (MRSA isolates) are put onto fresh plates and allowed to grow for 30 hours. A suspension inoculum is made from the plates (e.g., a 1 McFarland solution in sterile water), from which the turbidity may be optically read. A standard inoculum may then be cultured in media and 100 μL of that solution combined with 100 μL of drug product and grown at various dilutions for 16-20 hrs. Duplicates may then be examined (e.g., following pelleting at 7,000 RPM for 15 min, resuspended in PBS and serial dilutions plated and grown for 24 hrs.). Duplicate plates at multiple dilutions may then be imaged and colonies counted.

SMILES: CCCCCCCCCCCCCCCCO [CA, cetyl alcohol]
- effect of increasing amounts of CA in the UCA and LARG composition: decrease in efficacy
